One compound from patent US20160353738A1, “SYNERGISTIC HERBICIDAL COMPOSITION CONTAINING PENOXSULAM, TRICLOPYR AND BISPYRIBAC” (Dow AgroSciences LLC, priority 2014, published 2016) can be followed below.

The subject of series [1] is Digitaria species (DIGSS). Description: Postemergence herbicidal activity of mixtures in the field (rice small plots), visual weed control. In kind it is in vivo. To be noted: 50 g ai/ha. From the text:
(§1) Bispyribac was used as Nominee® 100SC or Nominee® 400SC.
(§2) As such, Colby's equation simplifies to […]

Series [2] concerns Rottboellia exaltata (Guineafowlgrass, ROOEX). Described as above. The series is classed as in vivo. To be noted: 50 g ai/ha.
Text: as §1, §2

Series [3] has as its system Ischaemum rugosum (Saramollagrass, ISCRU). The series is described as above. In kind it is in vivo. The following applies: 50 g ai/ha.
Text: as §1, §2

Series [4] relates to Echinochloa colonum (L.) LINK (junglerice, ECHCO). The description is as above. The series is classed as in vivo. To be noted: 30 DAA, 52 g ai/ha.
Text: as §1, §2

For series [5], the system named is Rice (Oryza Sativa, ORYSA). Description: Safening activity to rice in the field, visual crop injury. The following applies: 50 g ai/ha. How it is done:
The treated plots and control plots were rated blind at various intervals after application.
Colby's equation was used to determine the herbicidal effects expected from the mixtures (Colby, S. R. Calculation of the synergistic and antagonistic response of herbicide combinations. Weeds 1967, 15, 20-22).
However, the experiments described herein were performed such that active ingredients A and B were combined and only the efficacy of the combination was determined. As such, Colby's equation simplifies to […]

On to `COc1cc(OC)nc(Oc2cccc(Oc3nc(OC)cc(OC)n3)c2C(=O)[O-])n1.[Na+]` [Bispyribac-Sodium, sodium 2,6-bis((4,6-dimethoxypyrimidin-2-yl)oxy)benzoate], for which the “Percent (%) Visual Control” value in series [1] (6 DAA) is 93%; in series [1] (17 DAA) it was 88%; in series [2] (16 DAA), 87.3%; in series [2] (32 DAA), 69.5%; in series [3] (6 DAA) it was 0%; in series [3] (12 DAA), 30%. In addition, the “Percent (%) Visual Control” value worked out at 46.8% in series [3] (16 DAA); 0% in series [3] (17 DAA); 9.25% in series [3] (27 DAA); 0% in series [3] (32 DAA); 0% in series [3] (40 DAA); 86.25% in series [4]. Besides, the figures for the “Percent (%) Crop Injury” value in series [5] (6 DAA), in series [5] (17 DAA) and in series [5] (27 DAA) were 2.2%, 0.9% and 3%, respectively.
